# Measured values as given in patent US5212286A, “Atrial Natriuretic/vasodilator peptide compounds” (Scios Nova Inc., priority 1986, dated 1993).
# Positions of bridges follow the written chain, without caps; N, C: chain ends. Residues, ends and D or L forms follow the SMILES beside them. No end group written: not given here.
# How the values were obtained:
# [1] = test system: rabbit thoracic aortic rings; assay: Relaxation of histamine-contracted rabbit thoracic aortic rings; details: tested as described for the expressed material
# Experimental: (§1) Synthetic ANVP compounds were compared to partially purified (gel filtration step) and purified (HPLC) native ANVP compounds (See FIGS. 3A-D) for their ability to relax histamine-contracted aortic rings. Rings were suspended in 10 ml aerated Kreb's buffer under 1.5 gm passive tension. Rings were precontracted with 5 X 10^-6 M histamine, washed and allowed to return to baseline tension, as described (Kleinert, H. D., supra). Increasing amounts of purified or synthetic ANVP compounds were then added in cumulative fashion.
# The dried methanol soluble and ammonium acetate eluted material was resolubilized in 0.5 ml of distilled H2 O and tested for biological activity using the precontracted rabbit thoracic aortic ring model described in Kleinert, et al., Hypertension 6:Suppl. 1:143-146 (1984). Equal volumes of material reconstituted from crude lyophilized media, methanol soluble protein or protein eluted from SP-Sephadex® with 1.0 M ammonium acetate were compared using aortic rings precontracted with 5 μM histamine. Material synthesized by yeast cultures whose plasmids encoded proANVP (amino acids 26-152) (YEp-α-NF-9) and proANVP (amino acids 121-152) (YEp-α-NF-5), as well as the corresponding inverse orientations (YEp-α-NF-12 and YEp-α-NF-7, respectively), were compared.
# A fraction of the crude bacteria extract was subsequently boiled for 5 minutes and lowered to pH 2.5 for 1 hour. […]
# [2] = test system: ANVP receptor sites on cultured bovine vascular smooth muscle cells; assay: Displacement of specific [125I]rANVP(126-150) binding on cultured smooth muscle cells; details: for Ki: concentration of half-maximal displacement
# Text: Specific and saturable binding is a necessary component of a hormone/receptor interaction.
# Various concentrations of the peptides described were examined for […]
# isolated rat kidney = assay: Renal function in the isolated perfused rat kidney; details: dose 0.1 μg; experimental period E; mean of 3-8 experiments
# [3] = test system: precontracted rabbit or rat aortic preparations; assay: Vasorelaxant potency on precontracted aortic rings; details: for vasorelaxant potency in words: precontracted vascular preparations; for IC50: thoracic aortic segments precontracted with histamine or norepinephrine, read-out: IC50 (concentration producing half-maximal relaxation of the precontracted tissue)
# Experimental: as §1, with “([…].,” for “(Kleinert, H. D.,”, “fashion. […] The relaxation effects of various ANVP compounds on precontracted rabbit or rat aortic preparations are shown in Table III. | Thoracic aortic segments were precontracted with histamine or | norepinephrine as previously described. Various doses of ANVP compounds | were then added and relaxation of the precontracted state was monitored. | Data are expressed as the concentration of each peptide required to | produce a halfmaximal relaxation of the precontracted tissue (IC50).” for “fashion.”
# intact rats = assay: Natriuretic and diuretic effects in intact rats (bolus injection); type: in vivo, rat; details: dose 3670 pmol/kg
# Experimental: Synthetic ANVP compounds […] hANVP(127-151) were also found to be natriuretic in the intact rat. These compounds were administered as a bolus injection to Inactin anesthetized rats (100 mg/kg, average weight 399 g) which were maintained on a constant infusion of normal saline at 2.2 ml/hr. […] Data are expressed as mean±SE.
# experimental animals = assay: Diuretic activity following infusion into experimental animals (FIG. 12B); type: in vivo; details: urinary flow rate as percentage of baseline
# Text: FIG. 12 graphically portrays a comparison of the activities of selected compounds of the present invention, in which Panel A depicts a dose response relationship comparing the vasorelaxant properties of rANVP […] and [Ala^130 ]rANVP(126-150) and Panel B portrays a comparison of the diuretic activities of the same two peptides following infusion into experimental animals. Urinary flow rates during and post infusion (periods 7-24) were compared to control (baseline) flow rates (periods 1-6) and data are expressed as the percentage of baseline control values;
# In table VII, various ANVP compounds were tested over a ten-fold range of concentration. Most of the peptides induced diuresis and natriuresis with few exceptions ([D-Asp^135 ]rANVP(126-150), [D-Val^137 ] rANVP(126-150)]). […] This is perhaps best observed with the ANVP analog [Ala^130 ]rANVP(126-150). […] Thus, it appears that [Ala^130 ]rANVP(126-150), rANVP(126-147) and related peptide forms represent classes of compounds which may exert renal selectivity. Such compounds could have important therapeutic value.
compound,measurement,setting,value
"hANVP(126-151): human product produced in CHO cells, as printed; probably prohANVP(26-151) (RRSSCFGGRMDRIGAQSGLGCNSFRY; ends and bridges not checked; cysteine pairing not given here; UniProt P01160 126-151, looked up, fragment)","biological (vasodilatory) activity of expression products, in words",[1],exhibited biological activity similar to that observed above
CC[C@H](C)[C@@H]1NC(=O)[C@H](CCCNC(=N)N)NC(=O)[C@H](CC(=O)O)NC(=O)[C@H](CCSC)NC(=O)[C@H](CCCNC(=N)N)NC(=O)CNC(=O)CNC(=O)[C@H](Cc2ccccc2)NC(=O)[C@@H](NC(=O)[C@H](CO)NC(=O)[C@@H](N)CO)CSSC[C@@H](C(=O)N[C@@H](CC(N)=O)C(=O)N[C@@H](CO)C(=O)N[C@@H](Cc2ccccc2)C(=O)N[C@@H](CCCNC(=N)N)C(=O)N[C@@H](Cc2ccc(O)cc2)C(=O)O)NC(=O)CNC(=O)[C@H](CC(C)C)NC(=O)CNC(=O)[C@H](CO)NC(=O)[C@H](CCC(N)=O)NC(=O)[C@H](C)NC(=O)CNC1=O [hANVP(128-151)] (H-SSCFGGRMDRIGAQSGLGCNSFRY-OH; disulfide 3-19),"biological (vasodilatory) activity of expression products, in words",[1],displayed the full range of biological activities
same,Ki,[2]; Series A smooth muscle cells,7 nM
"CC[C@H](C)[C@@H]1NC(=O)[C@H](CCCNC(=N)N)NC(=O)[C@H](CC(=O)O)NC(=O)[C@H]([C@@H](C)CC)NC(=O)[C@H](CCCNC(=N)N)NC(=O)CNC(=O)CNC(=O)[C@H](Cc2ccccc2)NC(=O)[C@@H](NC(=O)[C@H](CO)NC(=O)[C@H](CO)NC(=O)[C@@H](N)CCCNC(=N)N)CSSC[C@@H](C(=O)N[C@@H](CC(N)=O)C(=O)N[C@@H](CO)C(=O)N[C@@H](Cc2ccccc2)C(=O)N[C@@H](CCCNC(=N)N)C(=O)N[C@@H](Cc2ccc(O)cc2)C(=O)O)NC(=O)CNC(=O)[C@H](CC(C)C)NC(=O)[C@@H](C)NC(=O)[C@H](CO)NC(=O)[C@H](CCC(N)=O)NC(=O)[C@H](C)NC(=O)CNC1=O [[D-Ala^142]rANVP(126-150), H-Arg-Ser-Ser-Cys-Phe-Gly-Gly-Arg-Ile-Asp-Arg-Ile-Gly-Ala-gln-Ser-[D-Ala]-Leu-Gly-Cys-Asn-Ser-Phe-Arg-Tyr-OH]",.V (urine flow rate),isolated rat kidney,58.5 µL/min
same,GFR,isolated rat kidney,0.75 mL/min
same,UNa.V (urinary sodium excretion rate),isolated rat kidney,2.50 μEq/min
same,vasorelaxant potency in words,[3],most potent
same,IC50,[3],0.62 nM
same,Ki,[2]; Series A smooth muscle cells,0.6 nM
same,Peak Na+ Excr.,intact rats,9.1 ± 0.9 µmol/min
same,Peak Urine Vol.,intact rats,66.3 ± 3 µL/min
CC[C@H](C)[C@@H]1NC(=O)[C@H](CCCNC(=N)N)NC(=O)[C@H](CC(=O)O)NC(=O)[C@H]([C@@H](C)CC)NC(=O)[C@H](CCCNC(=N)N)NC(=O)CNC(=O)CNC(=O)[C@H](C)NC(=O)[C@@H](NC(=O)[C@H](CO)NC(=O)[C@H](CO)NC(=O)[C@@H](N)CCCNC(=N)N)CSSC[C@@H](C(=O)N[C@@H](CC(N)=O)C(=O)N[C@@H](CO)C(=O)N[C@@H](Cc2ccccc2)C(=O)N[C@@H](CCCNC(=N)N)C(=O)N[C@@H](Cc2ccc(O)cc2)C(=O)O)NC(=O)CNC(=O)[C@H](CC(C)C)NC(=O)CNC(=O)[C@H](CO)NC(=O)[C@H](CCC(N)=O)NC(=O)[C@H](C)NC(=O)CNC1=O [[Ala^130]rANVP(126-150)],vasorelaxant potency in words,[3],substantially less potent than rANVP(126-150)
same,vasorelaxant potency in words,[3]; listed as [Ala^130 ] rANVP,essentially inactive
same,IC50,[3],> 100 nM
same,"binding activity in smooth muscle cells relative to rANVP(126-150), in words",[2],comparable binding activity to rANVP(126-150)
same,Ki,[2]; Series B smooth muscle cells,11.1 nM
same,diuretic effects in vivo compared with rANVP(126-150) (FIG. 12b),experimental animals,nearly equipotent
